Values after ≈ are worked out from the molar mass of the structure shown.

In experiment [1] the test system is Staphylococcus aureus ATCC 29213 (MSSA). Briefly: minimum inhibitory concentration; extreme values may be limits of the assay. Summed up:
(§1)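 The minimum inhibitory concentration was defined as the lowest concentration whose well remained blue rather than becoming pink. It was measured against methicillin-susceptible and methicillin-resistant Staphylococcus aureus by broth microdilution in 96-well plates according to CLSI guidance, with compounds at 0 to 100 µM incubated for 24 h at 37°C before 30 µl of 0.015% resazurin was added for 2–4 h. Each plate included positive controls.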

For experiment [2], the system named is Staphylococcus aureus ATCC 700699 (MRSA). The description is as above. Summed up:
as §1

On to `Cc1ccc2cc(C3NC(=O)c4ccccc4N3)c(Cl)nc2c1` (centres undefined), for which the minimum inhibitory concentration in experiment [1] and in experiment [2] was over 50 µM each time.
Consider `Cc1cc(C(=O)Nc2cnn(Cc3ccc(Cl)cc3Cl)c2)no1`, for which the minimum inhibitory concentration in experiment [1] and in experiment [2] was over 50 µM in each case.
For the compound `COC(=O)c1c(NC(=O)c2c(F)c(F)c(F)c(F)c2F)sc2c1CCCCC2`, the minimum inhibitory concentration in experiment [1] and in experiment [2] was over 50 µM in each case.
Turning to `CN1CCN(S(=O)(=O)c2ccc(-c3ccc4c(Nc5ncc(Cl)cn5)ccnc4c3)cc2)CC1`, the minimum inhibitory concentration in experiment [1] and in experiment [2] was over 50 µM in each case.
Take `O=C(Nc1ccccc1-c1nc2c(C(=O)O)cccc2o1)c1ccccc1`: the minimum inhibitory concentration in experiment [1] and in experiment [2] was over 50 µM throughout.
Regarding `CC(C)(C)C(=O)N(CCCCCCN1C[C@H](O)[C@@H](O)[C@H](O)[C@H]1CO)C1CCCCCC1`, the minimum inhibitory concentration in experiment [1] and in experiment [2] was over 50 µM each time.
Consider `c1ccc(Oc2ccc(-c3cc(N4CCNCC4)[nH]n3)cc2)cc1`, for which the minimum inhibitory concentration in experiment [1] and in experiment [2] was over 50 µM in each case.
In the case of `CS(=O)(=O)Cc1nc2ccccc2oc1=O`, the minimum inhibitory concentration in experiment [1] and in experiment [2] was over 50 µM each time.
In the case of `CN1CCC(NCc2cccc(-c3ccc(S(=O)(=O)NCc4ccccc4)cc3)c2)CC1`, the minimum inhibitory concentration in experiment [1] and in experiment [2] was over 50 µM in each case.
As for `CCN(CC)C(=O)N1CCN(C)CC1`, the minimum inhibitory concentration in experiment [1] and in experiment [2] was over 50 µM in each case.
As to `Cc1cc2ccccc2n1CC(=O)N1CC(C(=O)N2CCCCC2)Oc2ccccc21` (centres undefined), the minimum inhibitory concentration in experiment [1] and in experiment [2] was over 50 µM throughout.
Consider `N#Cc1nc(-c2ccccc2F)oc1NCCc1ccccc1`, for which the minimum inhibitory concentration in experiment [1] and in experiment [2] was over 50 µM each time.
Regarding `CC(C(=O)N1CCCC1)N1CCN(S(=O)(=O)c2ccc(C(C)(C)C)cc2)CC1` (centres undefined), the minimum inhibitory concentration in experiment [1] and in experiment [2] was over 50 µM each time.
Regarding `Cc1cc(Cl)ccc1NC(=O)CCc1ccc(S(=O)(=O)NCC(C)C)cc1`, the minimum inhibitory concentration in experiment [1] and in experiment [2] was over 50 µM throughout.
In the case of `O=C(NCc1cc(Cl)cc(Cl)c1)c1c(C(F)(F)F)nc2ccccn12`, the minimum inhibitory concentration in experiment [1] and in experiment [2] was over 50 µM throughout.
In the case of `COc1cccc(NC(=O)c2c(NC(=O)c3cccnc3)sc3c2CCC3)c1`, the minimum inhibitory concentration in experiment [1] and in experiment [2] was over 50 µM throughout.
Turning to `c1ccc2c(c1)CN(CC1CC1)CC1(CCN(Cc3c[nH]c4cnccc34)CC1)O2`, the minimum inhibitory concentration in experiment [1] and in experiment [2] was 50 µM (≈ 20.1 µg/mL) throughout.
Turning to `Clc1ccc(CN2CCN(C3=NCCN3)CC2)cc1Cl`, the minimum inhibitory concentration in experiment [1] and in experiment [2] was over 50 µM throughout.
Regarding `CCN(CC)CCCN1CCN(C(=O)c2cccc(-c3noc(C(F)(F)F)n3)c2)CC1`, the minimum inhibitory concentration in experiment [1] and in experiment [2] was over 50 µM in each case.
Turning to `O=C(NC1=NCCS1)c1sc2cc(F)ccc2c1Cl`, the minimum inhibitory concentration in experiment [1] and in experiment [2] was over 50 µM in each case.
With `CC[C@@H](CO)NCCN[C@@H](CC)CO`, the minimum inhibitory concentration in experiment [1] and in experiment [2] was over 50 µM each time.
As to `Cc1cc(Cl)c(S(=O)(=O)N2CCCC2)cc1OCC(=O)NC1CCCCC1`, the minimum inhibitory concentration in experiment [1] and in experiment [2] was over 50 µM throughout.
As to `Cc1noc(C)c1C(=O)N1CCCC(c2[nH]c3c(C)cccc3c2-c2ccncc2)C1` (centres undefined), the minimum inhibitory concentration in experiment [1] and in experiment [2] was over 50 µM each time.
Regarding `CC(C)/N=c1\cc2n(-c3ccc(Cl)cc3)c3ccccc3nc-2cc1Nc1ccc(Cl)cc1`, the minimum inhibitory concentration in experiment [1] and in experiment [2] was over 50 µM in each case.
Regarding `Cc1cc(C)cc(COc2ccc3c(C)c(CCC(=O)O)c(=O)oc3c2C)c1`, the minimum inhibitory concentration in experiment [1] and in experiment [2] was over 50 µM in each case.
On to `NCCC(O)C(=O)N[C@@H]1C[C@H](N)[C@@H](OC2O[C@H](CN)[C@@H](O)[C@H](O)[C@H]2O)[C@H](O)C1OC1O[C@H](CO)[C@@H](O)[C@H](N)[C@H]1O` (some centres undefined), for which the minimum inhibitory concentration in experiment [1] and in experiment [2] was over 50 µM in each case.
For `OC[C@H]1O[C@@H](n2c3ccc(Cl)cc3c3c(-c4cc5ccccc5o4)ncnc32)C(O)[C@H]1O` (some centres undefined), the minimum inhibitory concentration in experiment [1] and in experiment [2] was over 50 µM in each case.
In the case of `COc1ccccc1OCCCCn1c(C2CC2)nc2ccccc21`, the minimum inhibitory concentration in experiment [1] and in experiment [2] was over 50 µM each time.
On to `O=C(NC1CC1)c1ccc(N2CCC(Cc3ccccc3)CC2)nc1`, for which the minimum inhibitory concentration in experiment [1] and in experiment [2] was over 50 µM each time.
As for `Cc1nn(C)c(C)c1NS(=O)(=O)c1c(Cl)cc(-c2ccnc(N3CCNCC3)c2)cc1Cl`, the minimum inhibitory concentration in experiment [1] and in experiment [2] was over 50 µM in each case.
Regarding `CC(C)C(C(=O)Nc1ccc(S(=O)(=O)N(C)C)cc1)c1ccc(Cl)cc1` (centres undefined), the minimum inhibitory concentration in experiment [1] and in experiment [2] was over 50 µM in each case.
Turning to `Cc1nnc(NC(=O)c2cn(-c3ccccc3)nc2-c2ccccc2C)o1`, the minimum inhibitory concentration in experiment [1] and in experiment [2] was over 50 µM in each case.
With `CC1COC2(CCN(c3nc(=O)c4cc(C(F)(F)F)cc([N+](=O)[O-])c4s3)CC2)O1` (centres undefined), the minimum inhibitory concentration in experiment [1] and in experiment [2] was over 50 µM each time.
Turning to `Cc1ccc(S(=O)(=O)Nc2ccc(CN3CCN(C(=O)c4cccc(C#N)c4)CC3)cc2)cc1`, the minimum inhibitory concentration in experiment [1] and in experiment [2] was over 50 µM throughout.
For the compound `CC(C)(C)[C@H]1CC[C@H](CC2=C(O)C(=O)c3ccccc3C2=O)CC1`, the minimum inhibitory concentration in experiment [1] and in experiment [2] was over 50 µM throughout.
As to `CCN(CC)S(=O)(=O)c1ccc(Cl)c(C(=O)Nc2ccc3nc(C)sc3c2)c1`, the minimum inhibitory concentration in experiment [1] and in experiment [2] was over 50 µM in each case.
Consider `COc1ccc(-c2cnc3ccc(N4CCCC4)nn23)cc1OC`, for which the minimum inhibitory concentration in experiment [1] and in experiment [2] was over 50 µM in each case.
As to `CC(=O)Nc1ccc(-c2noc(CC3CCCN(Cc4cccc(F)c4C)C3)n2)cc1` (centres undefined), the minimum inhibitory concentration in experiment [1] and in experiment [2] was over 50 µM throughout.
Take `COc1cccc(-n2nnnc2S(C)(=O)=O)c1`: the minimum inhibitory concentration in experiment [1] and in experiment [2] was over 50 µM each time.
`CS(=O)(=O)c1ccc(C(=O)N(CC2CCCO2)c2nc3ccccc3s2)cc1[N+](=O)[O-]` (centres undefined): the minimum inhibitory concentration in experiment [1] and in experiment [2] was over 50 µM in each case.
Consider `COc1cc2ncnc(NC3CCN(Cc4ccccc4)CC3)c2cc1OC`, for which the minimum inhibitory concentration in experiment [1] and in experiment [2] was over 50 µM throughout.
Regarding `COc1ccc(-c2cc(NC(=O)c3ccc(F)cc3Cl)ccc2OC)cc1`, the minimum inhibitory concentration in experiment [1] and in experiment [2] was over 50 µM each time.
As to `O=C(NCc1nnc2n1CCCCC2)c1ccc(-c2ccc(F)cc2)o1`, the minimum inhibitory concentration in experiment [1] and in experiment [2] was over 50 µM throughout.
As for `CNc1snc(C)c1C(=O)NCCOc1ccc(OC)cc1`, the minimum inhibitory concentration in experiment [1] and in experiment [2] was over 50 µM each time.
With `COc1cc(C2=NCCN2)ccc1-c1cn(-c2cccc(C3=NCCN3)c2)nn1`, the minimum inhibitory concentration in experiment [1] and in experiment [2] was over 50 µM throughout.
On to `COc1cc(C2=NCCN2)ccc1-n1cc(-c2cccc(C3=NCCN3)c2)nn1`, for which the minimum inhibitory concentration in experiment [1] and in experiment [2] was over 50 µM each time.
On to `COC(=O)c1cccc2oc(-c3cccc(OC)c3NC(=O)c3cc(-c4ccccc4)on3)nc12`, for which the minimum inhibitory concentration in experiment [1] and in experiment [2] was over 50 µM each time.
Regarding `CC1(C)Cc2c(c(N3CCOCC3)nc3snc(Br)c23)CO1`, the minimum inhibitory concentration in experiment [1] and in experiment [2] was over 50 µM in each case.
In the case of `Cc1nn(C(=O)Nc2cccc(C(F)(F)F)c2)c(C)c1Sc1ncccn1`, the minimum inhibitory concentration in experiment [1] and in experiment [2] was over 50 µM throughout.
As to `CCOc1ccccc1C(=O)Nc1cccc(-c2nc3ncccn3c2C)c1`, the minimum inhibitory concentration in experiment [1] and in experiment [2] was over 50 µM in each case.
Regarding `O=C(Nc1nc(-c2ccccn2)cs1)c1cncn1-c1ccccc1`, the minimum inhibitory concentration in experiment [1] and in experiment [2] was over 50 µM in each case.
As to `CN1CCCC1CCO[C@](C)(c1ccccc1)c1ccc(Cl)cc1` (some centres undefined), the minimum inhibitory concentration in experiment [1] is over 50 µM; in experiment [2], 50 µM (≈ 17.2 µg/mL).
For `CO[C@H]1/C=C\O[C@@]2(C)Oc3c(C)c(O)c4c(O)c(/c(=C/NN5CCN(C)CC5)c(O)c4c3C2=O)=N\C(=O)/C(C)=C\C=C/[C@H](C)[C@H](O)[C@@H](C)[C@@H](O)[C@@H](C)[C@H](OC(C)=O)[C@@H]1C`, in that order: 0.09 µM (≈ 0.0741 µg/mL) and 50 µM (≈ 41.1 µg/mL).
For `C[C@H](C(N)=O)N1CCCC[C@H]1c1ccc(OCc2cccc(F)c2)cc1`, in that order: over 50 µM and over 50 µM.
For `Cc1ccc2nc(C)c(-c3ccn(Cc4ccccc4)n3)n2c1`, in that order: over 50 µM and over 50 µM.
Take `N#Cc1ccc(-c2ccc(OCC(N)=O)cc2)cc1`: the minimum inhibitory concentration in experiment [1] and in experiment [2] was over 50 µM in each case.
For the compound `CC(=O)N1CCN(c2ccc(Oc3ccc(Cl)cc3O)cc2)CC1`, the minimum inhibitory concentration in experiment [1] and in experiment [2] was over 50 µM throughout.

The values are drawn from the supplement of paper PMC6206229.
